Measurements reported in article PMC12598559, “Absorption characteristics and in vivo behavior of astaxanthin isomers: insights from the administration of highly purified (all-E)-, (9Z)-, and (13Z)-astaxanthin in male mice” (RSC Advances, 2025).
Like-named read-outs stand apart in the source and are kept apart here. Marks after values point to notes of the source that are not given here.

Columns and labels:
[1] = mouse, iv; for AUC0–∞ / C max: in vivo, 10 mg/kg
Procedure: (§1) All animal experiments were performed in the I Tech Lab. Co., Ltd (Gifu, Japan). The study protocol was approved by the Institutional Animal Care and Use Committee of the company (approval numbers: ITL-25-MO-385 for the oral administration test and ITL-25-MV-386 for the intravenous injection test). Slc:ICR (ICR) male mice aged 7–8 weeks, supplied by Japan SLC Inc. (Shizuoka, Japan), were used in this study. The body weight of the mice at the beginning of the experiments ranged from 42.8 to 52.3 g. The mice were maintained under stable laboratory conditions (temperature: 18–28 °C; humidity: 30–80%; 12 h light/dark cycle) and provided with drinking water and a standard laboratory diet (MF; Oriental Yeast Co., Ltd, Tokyo, Japan) throughout the acclimation and testing periods. After an 11-day acclimation period, single oral administration and intravenous injection tests were conducted. For the oral administration test, 15 mice were randomly assigned to four groups: control (placebo; soybean oil administered), (all-E)-astaxanthin administered (n = 4), (9Z)-astaxanthin administered (n = 4), and (13Z)-astaxanthin administered (n = 4). Each astaxanthin isomer was administered to mice at a dose of 100 mg per kg body weight. […] Blood samples were collected before and 3, 6, 9, 12, and 24 h after the administration of the test diets. Fecal samples were collected 6–24 h after administering astaxanthin. In the intravenous injection test, 15 mice were randomly assigned to four groups: control (placebo; solvent intravenously injected), (all-E)-astaxanthin intravenously injected (n = 4), (9Z)-astaxanthin intravenously injected (n = 4), and (13Z)-astaxanthin intravenously injected (n = 4). Each astaxanthin isomer was intravenously injected into mice at a dose of 10 mg per kg body weight.[24] Blood samples were collected before and 1, 3, 6, 9, and 12 h after injecting the test samples. After these tests, the mice were sacrificed by exsanguination under anesthesia (ketamine hydrochloride and xylazine hydrochloride), and the liver was collected. Plasma samples were prepared from heparin-treated blood by centrifugation. The collected plasma, liver, and fecal samples were immediately stored at −80 °C under dark condition until just before astaxanthin extraction.
(§2) Astaxanthin isomers in the plasma, liver, and fecal samples were extracted according to previous reports.[14,15] In brief, astaxanthin isomers in plasma were extracted using hexane containing 0.01% BHT. An equal volume of methanol was added to each plasma sample to precipitate the proteins prior to hexane extraction. The extraction was performed three times using a vortex mixer for 30 s. After separating the hexane and aqueous layers by centrifugation, the hexane layer was carefully collected and removed using an evaporator. The obtained solid was dissolved in a mixture of hexane and ethyl acetate (9 : 1), filtered through a 0.22 μm PTFE membrane filter, and analyzed using HPLC. Astaxanthin isomers in liver and fecal samples were extracted using acetone containing 0.01% BHT. The samples were ultrasonicated at 80 W and 38 kHz for 30 min in ice water (∼5 °C) to facilitate extraction. The extraction residue was separated from the extraction liquid using a 0.22 μm PTFE membrane filter. The filtrate containing astaxanthin isomers was concentrated to dryness using an evaporator. Finally, the residue was dissolved in a mixture of hexane and ethyl acetate (9 : 1), filtered through a 0.22 μm PTFE membrane filter, and analyzed using HPLC. To minimize the isomerization and degradation of astaxanthin during the extraction process, heat and light exposure were carefully controlled.

[2] = male, ICR, mouse; for F NCA (absolute oral bioavailability) / AUC0–∞ / C max / T max: in vivo, 100 mg/kg; for AUC0–∞ / C max / T max / in vivo isomerization in plasma: po
Procedure: as §1, §2

## CC(C=CC=C(C)C=CC1=C(C)C(=O)C(O)CC1(C)C)=CC=CC=C(C)C=CC=C(C)C=CC1=C(C)C(=O)C(O)CC1(C)C (stereo not drawn) [(9Z)-Astaxanthin, (9Z)-astaxanthin]
[1]; male, ICR
  AUC0–∞: 19400 ± 3300 ng·h/mL
  C max: 2030 ± 160 ng/mL
[1]
  in vivo isomerization in plasma: markedly limited isomerization
[2]
  F NCA (absolute oral bioavailability): 0.04
  AUC0–∞: 4330 ± 2070 ng·h/mL
  C max: 1010 ± 510 ng/mL
  T max: 4 h
  in vivo isomerization in plasma: isomerized into a variety of Z-isomers, including the all-E-, 13Z-, and 15Z-isomers, and two unidentified Z-isomers

## CC(C=CC=C(C)C=CC1=C(C)C(=O)C(O)CC1(C)C)=CC=CC=C(C)C=CC=C(C)C=CC1=C(C)C(=O)C(O)CC1(C)C (stereo not drawn) [(13Z)-Astaxanthin, (13Z)-astaxanthin]
[1]; male, ICR
  AUC0–∞: 127100 ± 32400 ng·h/mL
  C max: 5460 ± 1340 ng/mL
[1]
  in vivo isomerization in plasma: the isomer composition remained relatively stable
[2]
  F NCA (absolute oral bioavailability): 0.18
  AUC0–∞: 82200 ± 57400 ng·h/mL
  C max: 7700 ± 5090 ng/mL
  T max: 6 h
  in vivo isomerization in plasma: a minor portion of the 13Z-isomer isomerized to the all-E-isomer

## CC(C=CC=C(C)C=CC1=C(C)C(=O)C(O)CC1(C)C)=CC=CC=C(C)C=CC=C(C)C=CC1=C(C)C(=O)C(O)CC1(C)C (stereo not drawn) [(all-E)-Astaxanthin, (all-E)-astaxanthin]
[1]; male, ICR
  AUC0–∞: 310 ± 200 ng·h/mL
  C max: 100 ± 70 ng/mL
  in vivo isomerization in plasma: the proportion of the 13Z-isomer gradually increased over time
[2]
  F NCA (absolute oral bioavailability): 0.12
  AUC0–∞: 1460 ± 1350 ng·h/mL
  C max: 10 ± 10 ng/mL
  T max: 3 (9) ^d h
  in vivo isomerization in plasma: a small portion of (all-E)-astaxanthin was converted to the 13Z- and 15Z-isomers
